According to patent US20110053947A1, “Arylchalcogenoarylalkyl-substituted imidazolidine-2,4-diones, process for preparation thereof, medicaments comprising these compounds and use thereof” (SANOFI-AVENTIS, priority 2008, published 2011):
Like-named read-outs stand apart in the source and are kept apart here.

Assays:
[1] = molecular target: T1, cannabinoid CB1 receptor (CB1) (Mus musculus, UniProt P47746); assay: Antagonization of CB1-mediated hypothermia; type: in vivo; conditions: female NMRI mice; 1.25 mg/kg intraperitoneally; within 30 min
T1 construct: from tissue; host or cells: whole animal (female NMRI mice)
Description: “Antagonization of CB 1-mediated Hypothermia”
The test is used to measure the potency of cannabinoid CB1 receptor (CB1) antagonists. What is measured is the extent to which the CB1 antagonists to be tested are capable of preventing or of antagonizing hypothermia induced by a CB1 agonist.
Female NMRI mice, 25-35 g in weight, are used. The mice are accustomed to the housing conditions for at least one week.
At time 0 min, the animals are treated orally, intravenously or intraperitoneally with the CB1 antagonist to be tested. 30 min later, the CB1 agonist CP55.940, 1.25 mg/kg, is administered to the mice intraperitoneally. This brings about a fall in the body temperature by 5-6° C. within 30 min. The body temperature is measured rectally for the first time 30 min before the test substance administration and then every 30 min after this administration, if appropriate immediately before a substance administration, over 4 hours.
The potency of the test substances is reported as the percentage decrease in the area under the temperature-time curve which is formed firstly by the average basal temperature, and secondly by the temperature-time curve, of the animals treated exclusively with the CB1 antagonist.

[2] = molecular target: T2, cannabinoid 1 receptor (hCB1R) (Homo sapiens, UniProt P21554); assay: In vitro functional assay with recombinant cells (FLIPR), CB1; type: cell-based; conditions: intracellular Ca2+ change after reference agonist, 20 min preincubation
T2 construct: expressed in transfected cells; host or cells: HEK293
Description: (§1) In vitro functional assays with recombinant cells:
(§2) Function-testing assays were performed by means of the FLIPR technique (“Fluorometric Imaging Plate Reader”, Molecular Devices Corp.).
(§3) To this end, ligand-induced changes in the intracellular concentration of Ca^2+ in recombinant HEK293 cells, which expressed both a cannabinoid receptor (CB1 or CB2) and G-protein Galphal6, were determined. For the studies, cells were sown into 96-well microtiter plates (60 000 cells/well) and left to grow overnight. The medium was removed and the cells were incubated in buffer which contained the fluorescent dye Fluo-4. After this loading with dye, the cells were washed, test substance was added dissolved in buffer, the mixture was incubated for 20 minutes, a known cannabinoid receptor agonist as a reference agonist was added in buffer and, finally, the changes in the intracellular Ca^2+ concentration were measured in the FLIPR unit.
Results were presented as the percentage change relative to the control (0%: analogous experiment without test substance and without reference agonist, i.e. only with buffer; 100%: analogous experiment without test substance, but with reference agonist in excess), and used to calculate dose/action curves, and IC50 values were determined.
The values of the functional assay compared to the cannabinoid 1 receptor including illustrative selectivities compared to the cannabinoid 2 receptor can be taken from table 1 which follows.

[3] = molecular target: T3, cannabinoid 2 receptor (hCB2R) (Homo sapiens, UniProt P34972); assay: In vitro functional assay with recombinant cells (FLIPR), CB2; type: cell-based
T3 construct: expressed in transfected cells; host or cells: HEK293
Description: as §1, §2, §3

[4] = molecular target: T4, CHO-K1/cannabinoid CB1 (hCB1R) (Homo sapiens, UniProt P21554); assay: Binding to the CB1 receptor ([3H]-SR141716A displacement)
T4 construct: expressed in transfected cells; host or cells: CHO-K1
Description: Binding to the CB 1 Receptor:
Test compounds: The compounds (3 μl, 10 mM, 100% DMSO), pipetted into 96-well PP microtiter plates, were diluted with 27 μl of 100% DMSO (dimethyl sulfoxide). Proceeding from this solution, further 3-fold dilution steps were undertaken by transferring 10 μl in each case to a new PP microtiter plate and adding a further 20 μl of 100% DMSO. In each case 6 μA of these solutions were transferred into new 96-well PP microtiter plates and made up with 144 μl of assay buffer. The end concentrations ranged from 10 μM to 0.005 μM. Negative control: AM 251, dissolved in assay buffer with 1% DMSO, was added to the dilution series in the microtiter plates as a control. The end concentration was 1 μM. Blank control: assay buffer with 1% DMSO was added to the dilution series of the microtiter plates as a blank control.
Summary of the Assay Parameters:
The values were calculated using the corrected raw data.
The values reported were obtained as average values of a double determination. The IC50 values were calculated from the measurements with the program Xlfit, formula 205. Ki values were obtained from the IC50 and Kd values utilizing the Cheng-Prusoff equation: […]
Literature: Cheng, Y.-C., and Prusoff, W. H. (1973) Biochem. Pharmacol 22, 3099-3108 Results: Ki values of example compounds; Table 2: […]

[5] = recombinant HEK293 cells expressing CB1 and G-protein, read-out: hCB1R: FLIPR, IC50
[6] = hCB1R: FLIPR, IC50, recombinant HEK293 cells expressing CB1 and G-protein
[7] = recombinant HEK293 cells expressing CB2 and G-protein, intracellular Ca2+ change after reference agonist, 20 min preincubation, read-out: hCB2R: FLIPR, IC50

T3 sequence (P34972 whole entry): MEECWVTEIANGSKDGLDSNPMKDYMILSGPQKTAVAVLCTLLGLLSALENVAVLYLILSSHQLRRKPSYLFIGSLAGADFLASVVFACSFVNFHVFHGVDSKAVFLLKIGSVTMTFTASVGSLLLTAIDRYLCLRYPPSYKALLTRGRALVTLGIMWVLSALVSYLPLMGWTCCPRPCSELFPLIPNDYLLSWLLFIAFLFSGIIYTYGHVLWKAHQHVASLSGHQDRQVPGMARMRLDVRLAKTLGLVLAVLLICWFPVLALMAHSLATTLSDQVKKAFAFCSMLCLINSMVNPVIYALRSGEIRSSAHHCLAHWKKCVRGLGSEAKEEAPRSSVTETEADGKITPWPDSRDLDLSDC
T2 sequence (P21554 whole entry): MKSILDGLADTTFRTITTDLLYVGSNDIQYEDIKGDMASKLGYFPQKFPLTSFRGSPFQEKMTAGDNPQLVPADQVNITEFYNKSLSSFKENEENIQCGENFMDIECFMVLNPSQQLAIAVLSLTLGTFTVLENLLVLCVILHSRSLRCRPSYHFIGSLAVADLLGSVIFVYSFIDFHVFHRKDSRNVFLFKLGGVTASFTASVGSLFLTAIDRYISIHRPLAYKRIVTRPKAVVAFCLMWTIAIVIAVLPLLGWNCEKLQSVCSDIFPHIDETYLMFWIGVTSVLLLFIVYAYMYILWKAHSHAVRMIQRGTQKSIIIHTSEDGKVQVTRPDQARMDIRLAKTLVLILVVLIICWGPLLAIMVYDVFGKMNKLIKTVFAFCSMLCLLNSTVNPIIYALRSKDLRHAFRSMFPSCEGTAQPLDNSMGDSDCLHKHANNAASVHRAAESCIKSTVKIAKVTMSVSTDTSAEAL
T4 sequence (P21554 whole entry): as above
T1 sequence (P47746 whole entry): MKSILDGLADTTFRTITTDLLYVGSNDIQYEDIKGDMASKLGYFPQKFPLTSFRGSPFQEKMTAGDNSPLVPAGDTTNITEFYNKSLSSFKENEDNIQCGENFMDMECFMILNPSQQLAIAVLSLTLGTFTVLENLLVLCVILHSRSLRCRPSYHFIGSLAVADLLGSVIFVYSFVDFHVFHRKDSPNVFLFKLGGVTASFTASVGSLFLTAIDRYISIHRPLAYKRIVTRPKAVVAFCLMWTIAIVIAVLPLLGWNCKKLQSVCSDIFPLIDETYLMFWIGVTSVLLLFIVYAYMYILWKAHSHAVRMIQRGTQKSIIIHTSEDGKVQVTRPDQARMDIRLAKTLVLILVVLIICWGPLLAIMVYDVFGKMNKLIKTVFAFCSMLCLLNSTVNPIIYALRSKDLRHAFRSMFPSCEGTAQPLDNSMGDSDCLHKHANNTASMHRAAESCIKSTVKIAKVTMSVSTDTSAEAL

SMILES | IC50 [2, 5] | IC50 [3] | IC50 [2, 6] | IC50 [3, 7] | other results
CCCCCCC(C)(C)c1ccc([C@@H]2C[C@H](O)CC[C@H]2CCCO)c(O)c1 [CP55.940] | – | – | – | – | fall in the body temperature [1]: 5-6 °C
CC1(C)C(=O)N(c2ccc(C#N)c(C(F)(F)F)c2)C(=O)N1Cc1ccccc1NC(=O)Nc1ccc(S(N)(=O)=O)cc1 [Example 1, 4-(3-{2-[3-(4-Cyano-3-trifluoromethylphenyl)-5,5-dimethyl-2,4-dioxo-imidazolidin-1-ylmethyl]phenyl}ureido)benzenesulfonamide] | 24 nM | > 10000 nM | – | – | Ki ([4]; [3H]-SR141716A 0.5 nM, Ki from IC50 and Kd by Cheng-Prusoff, average of double determination, read-out: hCB1R, Bindung Ki): 20 nM
COC(=O)c1ccc(NC(=O)Nc2ccccc2CN2C(=O)N(c3ccc(C#N)c(C(F)(F)F)c3)C(=O)C2(C)C)cc1 [Example 3, methyl 4-(3-{2-[3-(4-cyano-3-trifluoromethylphenyl)-5,5-dimethyl-2,4-dioxoimidazolidin-1-ylmethyl]phenyl}ureido)benzoate] | – | – | 19 nM | > 10000 nM | Ki [4]: 11 nM
CC1(C)C(=O)N(c2ccc(C#N)c(C(F)(F)F)c2)C(=O)N1Cc1ccccc1NC(=O)Nc1ccc(C#N)cc1 [Example 6, 1-(4-cyanophenyl)-3-{2-[3-(4-cyano-3-trifluoromethylphenyl)-5,5-dimethyl-2,4-dioxoimidazolidin-1-ylmethyl]phenyl}urea] | – | – | 11 nM | > 10000 nM | –
CC1(C)C(=O)N(c2ccc(C#N)c(C(F)(F)F)c2)C(=O)N1Cc1ccccc1NC(=O)Nc1cccc(C#N)c1 [Example 8, 1-(3-cyanophenyl)-3-{2-[3-(4-cyano-3-trifluoromethylphenyl)-5,5-dimethyl-2,4-dioxoimidazolidin-1-ylmethyl]phenyl}urea] | – | – | 35 nM | > 10000 nM | –
CCOc1ccc(NC(=O)Nc2ccccc2CN2C(=O)N(c3ccc(C#N)c(C(F)(F)F)c3)C(=O)C2(C)C)cc1 [Example 10, 1-{2-[3-(4-cyano-3-trifluoromethylphenyl)-5,5-dimethyl-2,4-dioxoimidazolidin-1-ylmethyl]phenyl}-3-(4-ethoxyphenyl)urea] | 53 nM | > 10000 nM | – | – | –
